Patent publication US20250248968A1, “COMPOSITION COMPRISING CAPSAICIN OR A CAPSACINOID” (MESTEX AG, priority 2019, published 2025)

Tests used:
Type in all cases: in vivo, human
[1] = tested on: patient with painful rizarthrosis; assay: Example 6: injection into painful joint base before surgery for rizarthrosis, postoperative pain
Protocol: A patient with painful rizarthrosis was scheduled for surgical treatment of the disease on week prior to the operation. the patient was injected with 1 ml of a physiological saline solution containing 0.9 mg capsaicin into the painful joint base without prior administration of local anesthetics. The massive pain was treated with ice packs and inter-muscular morphine.

[2] = tested on: patient with symptomatic hallux valgus; assay: Example 5: intra-articular injection one month before hallux valgus surgery, postoperative pain; conditions: 200 ng intra-articular one month preoperatively; 2 ml 2% Lidocaine 5 minutes prior; 1 patient
Protocol: A patient with symptomatic hallux valgus was scheduled for surgical treatment. One month preoperatively an intra articular injection 1 ml resiniferatoxin (200 ng) was administered into the interphalangeal join space with prior (5 minutes) periarticular anesthesia using 2 ml 2% Lidocaine.

[3] = tested on: patients with transtendinous rotator cuff tears; assay: Example 3: subacromial injection 2 to 6 weeks before arthroscopic cuff repair, postoperative pain and mobility
Protocol: A series of 5 patients with a mean age 62 years and transtendinous rotator cuff tears and having been scheduled for arthroscopic cuff repair was 2 to 6 weeks (13 days for two patients and 16,23 and 41 days for the other three patients) preoperatively treated with a subacromial injection of 0.4 microgram resiniferatoxin dissolved in 10 ml 2% lidocaine.
Postinjection pain was controlled with ice packs and NSAIDS. The postoperative pain protocol included 48 hours of interscalene continuous regional anesthesia. Thereafter pain was exceptionally low (VAS <2) in four out of five patients.

[4] = tested on: patient with hip osteoarthritis; assay: Example 1: intra-articular hip infiltration one month before total hip prosthesis, postoperative pain
Protocol: A patient with hip osteoarthritis and pain for 2 years was not treatable anymore with conventional pain medication (NSAIDS, Paracetamol, opioids, etc.) or infiltration (corticosteroids, hyaluronic acid). Therefore the patient was treated with an infiltration into the hip joint under fluoroscopic control with 0.8 micrograms of Resiniferatoxin dissolved in 250 microliters of Ethanol and mixed with 5 ml buffer solution.
10 minutes prior to the injection a local anesthetic (5 ml lidocaine 2%) was applied under fluoroscopic control intra-articularly to prevent injection pain. Moderate post-injection pain after RTX was controlled with oral administration of morphine. One month later the patient still suffered from relevant impairment of hip mobility and peritrochanteric pain and was treated with implantation of a total hip prosthesis.

[5] = tested on: patient with anterior cruciate ligament rupture with medial meniscal tear; assay: Example 2: intra-articular treatment 3 weeks before cruciate ligament and meniscal repair, postoperative pain and range of motion
Protocol: A physiotherapist suffered a traumatic anterior cruciate ligament rupture with medial meniscal tear. Due to unacceptable symptoms of instability a surgical reconstruction was scheduled. During the waiting period for the operation 3 weeks preoperatively an intra-articular treatment with 2 micrograms of resiniferatoxin dissolved in Ringers lactate buffer at a concentration of 200 ng/ml with immediate prior administration (i.e. within 1 minute) of a local anesthetic (5 ml 0.5% bupivacaine) was applied.
Three weeks later a crucial ligament repair using patellar tendon autograft and arthroscopic meniscal repair was performed. Postoperative pain was restricted to the first 72 hours and below VAS 2 thereafter. Unexpectedly the passive range of motion was flex-extension of 130-0-0° 3 weeks after the operation and further improving thereafter with minimal (VAS 1) pain.

[6] = tested on: patients with symptoms of frozen shoulders; assay: Example 4: intra-articular treatment before arthroscopic capsular release, pain and mobility
Protocol: A series of 3 patients with symptoms of frozen shoulders (VAS >6) for at least six month were scheduled for arthroscopic capsular release. All patients were treated with an intra-articular treatment with 2 micrograms of resiniferatoxin dissolved in 10 ml of physiological salt solution containing 4 mM Ca^2+ with immediate prior administration (2.5 and 15 minutes prior to resiniferatoxin) of a local anesthetic (5 ml 0.25% ropivacaine) at 29, 32 and 40 days preoperatively.
Thereafter pain regressed 2 weeks after injection to a level below VAS 3 in all patients. The postoperative pain treatment after capsulotomy included 5 days of regional continuous anesthesia.

Compound | pain after injection ([1]; 0.9 mg in 1 ml saline without prior local anesthetics, treated with ice packs and morphine) | postoperative pain ([1]; 0.9 mg injected on(e) week prior to the operation, 1 patient) | need for pain medication after surgery [2] | postoperative pain (VAS) ([3]; after 48 hours of interscalene regional anesthesia, in four out of five patients, 0.4 microgram in 10 ml 2% lidocaine subacromial) | clinical signs of stiff or frozen shoulder ([3]; postoperative course up to 1 year follow up) | glenohumeral abduction ([3]; six weeks postoperatively) | pain upon passive external rotation ([3]; six weeks postoperatively, 5 patients) | passive external rotation, difference to contralateral side ([3]; six weeks postoperatively, all patients) | post-injection pain ([4]; 0.8 micrograms intra-articular hip, 5 ml lidocaine 2% 10 minutes prior, controlled with oral morphine) | need for per oral pain medication ([4]; after second postoperative day) | pain reported thereafter ([4]; after second postoperative day) | postoperative pain ([4]; after total hip prosthesis one month after 0.8 micrograms infiltration, 1 patient) | postoperative pain (VAS) ([4]; first postoperative day) | postoperative pain (VAS) ([4]; second postoperative day) | duration of postoperative pain ([5]; 2 micrograms intra-articular 3 weeks preoperatively, 5 ml 0.5% bupivacaine immediately prior, 1 patient) | postoperative pain (VAS) ([5]; after the first 72 hours) | pain (VAS) ([5]; from 3 weeks after the operation, range of motion further improving) | pain level (VAS) ([6]; 2 weeks after injection, before surgery, all 3 patients, 2 micrograms intra-articular with 4 mM Ca2+, 5 ml 0.25% ropivacaine prior, baseline VAS >6) | postoperative pain (VAS) ([6]; after 5 days of regional continuous anesthesia following capsulotomy, all patients) | maintenance of intraoperatively achieved mobility ([6]; after capsulotomy, all patients)
COc1cc(CNC(=O)CCCC/C=C/C(C)C)ccc1O [capsaicin] | massive pain | almost no postoperative pain | – | – | – | – | – | – | – | – | – | – | – | – | – | – | – | – | – | –
C=C(C)[C@]12C[C@@H](C)[C@@]34O[C@](Cc5ccccc5)(O[C@@H]1[C@@H]3C=C(COC(=O)Cc1ccc(O)c(OC)c1)C[C@]1(O)C(=O)C(C)=C[C@@H]41)O2 [resiniferatoxin] | – | – | did not need further pain medication after the second day after surgery | < 2 VAS | no clinical signs corresponding to a stiff or frozen shoulder were observed | at least 80 ° | none of the patients reported pain | ≤ 15 ° | Moderate | did not need any further per oral pain medication | virtually no pain | moderate to none | 5 VAS | 2 VAS | ≤ 72 h | < 2 VAS | 1 VAS | < 3 VAS | < 3 VAS | able to fully maintain their intraoperatively achieved mobility
